According to patent US12043602B2, “Fendiline derivatives” (The Board of Regents of the University of Texas System, priority 2019, dated 2024):

Legend:
mGFP-K-RASG12V = mGFP-K-RASG12V (Homo sapiens (Human), UniProt P01116, G12V); assay: K-Ras mislocalization assay (confocal microscopy, Manders coefficient); assay type: cell-based; parameters: key to Emax: Manders coefficient: fraction of mCherry-CAAX co-localizing with GFP-K-Ras; details: for Emax: maximal effect, Manders coefficient; for Emax / EC50 / IC50: MDCK cells; for Emax / EC50: 48 h; for EC50: batch 4 compounds, title calls it IC50, read-out: EC50; for IC50: 48 h treatment, read-out: IC50 (μM), KRASG12V mislocalization
How it was run: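 Readout is the Manders coefficient: share of mCherry-CAAX overlapping mGFP-K-RASG12V in confocal images, proportional to K-Ras mislocalization. Stable MDCK co-expressing lines were exposed 48 h to various drug concentrations or 0.1% DMSO vehicle, then paraformaldehyde-fixed.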

[1] = test system: MDCK cells co-expressing GFP-K-RASG12V and mCherry-CAAX; assay: Cytotoxicity in mislocalization screen (death of all cells in well); details: drug caused death of all cells in well at 30 μM

Row | Emax (mGFP-K-RASG12V) | EC50 (mGFP-K-RASG12V) | IC50 (mGFP-K-RASG12V) | SMILES | Cytotoxic at 30 μM [1] | Emax (mGFP-K-RASG12V; listed as 12i) | fold potency loss / decreased potency (mGFP-K-RASG12V; versus 12f (NY0244))
1 | 0.452 |  |  | C[C@@H](NCCN1c2ccccc2CCc2ccccc21)c1ccccc1 [NY0553, (R)-2-(10,11-dihydro-5H-dibenzo[b,f]azepin-5-yl)-N-(1-phenylethyl)ethan-1-amine] | No |  | 
2 | 0.327 | 1200 nM |  | COC(=O)[C@@H](c1ccccc1)N(CC=C(c1ccccc1)c1ccccc1)C(=O)NC(C)(C)C [NY0554, methyl (R)-2-(3-(tert-butyl)-1-(3,3-diphenylallyl)ureido)-2-phenylacetate] | Yes (even |  | 
3 | 0.332 | 4370 nM |  | O=C(O)[C@H](NCC=C(c1ccccc1)c1ccccc1)c1ccccc1 [NY0555, (R)-2-((3,3-diphenylallyl)amino)-2-phenylacetic acid] | No |  | 
4 | 0.732 |  |  | CN1CCN(C(=O)[C@H](NCC=C(c2ccccc2)c2ccccc2)c2ccccc2)CC1 [NY0557, (R)-2-((3,3-diphenylallyl)amino)-1-(4-methylpiperazin-1-yl)-2-phenylethan-1-one] | No |  | 
5 | 0.718 | 5930 nM |  | COC(=O)[C@H](CC(C)C)NC(=O)[C@H](NCC=C(c1ccccc1)c1ccccc1)c1ccccc1 [NY0566, methyl ((R)-2-((3,3-diphenylallyl)amino)-2-phenylacetyl)-L-leucinate] | No |  | 
6 | 0.364 |  |  | CC(=O)NNC(=O)[C@H](NCC=C(c1ccccc1)c1ccccc1)c1ccccc1 [NY0568, (R)-N′-acetyl-2-((3,3-diphenylallyl)amino)-2-phenylacetohydrazide] | No |  | 
7 | 0.321 |  |  | NC(=O)[C@H](NCC=C(c1ccccc1)c1ccccc1)c1ccccc1 [NY0569, (R)-2-((3,3-diphenylallyl)amino)-2-phenylacetamide] | No |  | 
8 | 0.397 |  |  | Cc1nnc([C@H](NCC=C(c2ccccc2)c2ccccc2)c2ccccc2)o1 [NY0570, (R)-N-((5-methyl-1,3,4-oxadiazol-2-yl)(phenyl)methyl)-3,3-diphenylprop-2-en-1-amine] | No |  | 
9 | 0.565 |  |  | C[C@@H](NCC(=O)N1c2ccccc2Sc2ccccc21)c1ccccc1 [NY0572, (R)-1-(10H-phenothiazin-10-yl)-2-((1-phenylethyl)amino)ethan-1-one] | No |  | 
10 | 0.733 | 1750 nM |  | C[C@@H](NCC(=O)N1c2ccccc2Sc2ccccc21)c1ccc(F)cc1 [NY0573, (R)-2-((1-(4-fluorophenyl)ethyl)amino)-1-(10H-phenothiazin-10-yl)ethan-1-one] | No |  | 
11 | 0.842 | 4820 nM |  | C[C@@H](NCCN1c2ccccc2Sc2ccccc21)c1ccccc1 [NY0574, (R)-N-(2-(10H-phenothiazin-10-yl)ethyl)-1-phenylethan-1-amine] | No |  | 
12 | 0.484 | 4300 nM |  | C[C@@H](NCCN1c2ccccc2Sc2ccccc21)c1ccc(F)cc1 [NY0575, (R)-N-(2-(10H-phenothiazin-10-yl)ethyl)-1-(4-fluorophenyl)ethan-1-amine] | No |  | 
13 | 0.725 | 3910 nM |  | C[C@@H](NCC(=O)N1c2ccccc2CCc2ccccc21)c1ccc(F)cc1 [NY0583, (R)-1-(10,11-dihydro-5H-dibenzo[b,f]azepin-5-yl)-2-((1-(4-fluorophenyl)ethyl)amino)ethan-1-one] | No |  | 
14 | 0.697 | 6940 nM |  | C[C@@H](NCC(=O)N1c2ccccc2CCc2ccccc21)c1ccccc1 [NY0584, (R)-1-(10,11-dihydro-5H-dibenzo[b,f]azepin-5-yl)-2-((1-phenylethyl)amino)ethan-1-one] | No |  | 
15 | 0.827 | 1830 nM |  | COc1ccc([C@@H](C)N(CC=C(c2ccccc2)c2ccccc2)CCN2CCN(C(=O)NC(C)(C)C)CC2)cc1 [NY0587, (R)-N-(tert-butyl)-4-(2-((3,3-diphenylallyl)(1-(4-methoxyphenyl)ethyl)amino)ethyl) piperazine-1-carboxamide] | No |  | 
16 | 0.895 | 2180 nM |  | CCN1CCN(CCN(CC=C(c2ccccc2)c2ccccc2)[C@H](C)c2ccc(OC)cc2)CC1 [NY0589, (R)-N-(2-(4-ethylpiperazin-1-yl)ethyl)-N-(1-(4-methoxyphenyl)ethyl)-3,3-diphenylprop-2-en-1-amine] | Yes |  | 
17 | 0.825 |  |  | COc1ccc([C@@H](C)N(CC=C(c2ccccc2)c2ccccc2)CCN2CCN(C(=O)C(C)F)CC2)cc1 (stereo partly drawn) [NY0591, 1-(4-(2-((3,3-diphenylallyl)((R)-1-(4-methoxyphenyl)ethyl)amino)ethyl)piperazin-1-yl)-2-fluoropropan-1-one] | No |  | 
18 | 0.685 | 5600 nM |  | C(CN(CCN1CCCC1)[C@@H]1C[C@H]1c1ccccc1)=C(c1ccccc1)c1ccccc1 [NY0592, (1R,2S)-N-(3,3-diphenylallyl)-2-phenyl-N-(2-(pyrrolidin-1-yl)ethyl)cyclopropan-1-amine] | Yes |  | 
19 | 0.75 | 3260 nM |  | CCCN1CCN(CCN(CC=C(c2ccccc2)c2ccccc2)[C@H](C)c2ccc(OC)cc2)CC1 [NY0594, (R)-N-(2-(4-propylpiperazin-1-yl)ethyl)-N-(1-(4-methoxyphenyl)ethyl)-3,3-diphenylprop-2-en-1-amine] | Yes |  | 
20 | 0.713 |  | 0.42 µM | C(CN(CC=C(c1ccccc1)c1ccccc1)[C@@H]1C[C@H]1c1ccccc1)=C(c1ccccc1)c1ccccc1 [NY022601, (1R,2S)-N,N-bis(3,3-diphenylallyl)-2-phenylcyclopropanamine] | No |  | 
21 | 0.637 |  | 0.16 µM | C(CN[C@@H]1C[C@H]1c1ccccc1)=C(c1ccccc1)c1ccccc1 [NY022602, (1R,2S)-N-(3,3-diphenylallyl)-2-phenylcyclopropanamine] | No |  | 
22 | 0.494 |  |  | C[C@@H](CN(CC=C(c1ccccc1)c1ccccc1)CC=C(c1ccccc1)c1ccccc1)c1ccccc1 [NY022701, (R)-N-(3,3-diphenylallyl)-3,3-diphenyl-N-(2-phenylpropyl)prop-2-en-1-amine] | No |  | 
23 | 0.608 |  | 16.9 µM | C[C@@H](CNCC=C(c1ccccc1)c1ccccc1)c1ccccc1 [NY022702, (R)-3,3-diphenyl-N-(2-phenylpropyl)prop-2-en-1-amine] | No |  | 
24 | 0.778 |  | 1.46 µM | C(CN(CC=C(c1ccccc1)c1ccccc1)C1(c2ccccc2)CC1)=C(c1ccccc1)c1ccccc1 [NY040401, N,N-bis(3,3-diphenylallyl)-1-phenylcyclopropanamine] | No |  | 

Row | SMILES | Emax (mGFP-K-RASG12V) | EC50 (mGFP-K-RASG12V) | IC50 (mGFP-K-RASG12V) | Cytotoxic at 30 μM [1] | Emax (mGFP-K-RASG12V; listed as 12i) | fold potency loss / decreased potency (mGFP-K-RASG12V; versus 12f (NY0244))
25 | COc1ccc([C@@H](C)N(CC=C(c2ccccc2)c2ccccc2)CCN2CCC2)cc1 [NY0593, (R)-N-(2-(azetidin-1-yl)ethyl)-N-(1-(4-methoxyphenyl)ethyl)-3,3-diphenylprop-2-en-1-amine] | 0.694 | 492 nM | 0.5 µM | Yes | 0.69 ± 0.02 | 5 fold
